Results reported in ChEMBL document CHEMBL1955743, “Potent inhibitors of LpxC for the treatment of Gram-negative infections” (J Med Chem, 2012).
pIC50, pKi: −log10 of the molar value. In brackets after ≈: the same amount, converted by molar mass.

Key:
Pseudomonas aeruginosa [1] = assay: Antibacterial activity against Pseudomonas aeruginosa PAO1 after 16 to 20 hrs by broth microdilution method; format: functional
Staphylococcus aureus = assay: Antibacterial activity against Staphylococcus aureus ATCC 29213 after 16 to 20 hrs by broth microdilution method; format: functional
Pseudomonas aeruginosa [2] = assay: Antibacterial activity against mexAB-OprM,mexXY,MexZ-deficient Pseudomonas aeruginosa PAO280 by broth microdilution technique; format: functional
Pseudomonas aeruginosa [3] = assay: Antibacterial activity against Pseudomonas aeruginosa after 16 to 20 hrs by broth microdilution method; format: functional
Klebsiella pneumoniae = assay: Antibacterial activity against Klebsiella pneumoniae after 16 to 20 hrs by broth microdilution method; format: functional
Escherichia coli = assay: Antibacterial activity against Escherichia coli after 16 to 20 hrs by broth microdilution method; format: functional
Klebsiella aerogenes = assay: Antibacterial activity against Enterobacter aerogenes after 16 to 20 hrs by broth microdilution method; format: functional
Citrobacter freundii = assay: Antibacterial activity against Citrobacter freundii after 16 to 20 hrs by broth microdilution method; format: functional
Acinetobacter baumannii = assay: Antibacterial activity against Acinetobacter baumannii after 16 to 20 hrs by broth microdilution method; format: functional
Interstitial collagenase = Interstitial collagenase (Homo sapiens, UniProt P03956); assay: Inhibition of human MMP1
Chain of Interstitial collagenase (P03956 whole entry): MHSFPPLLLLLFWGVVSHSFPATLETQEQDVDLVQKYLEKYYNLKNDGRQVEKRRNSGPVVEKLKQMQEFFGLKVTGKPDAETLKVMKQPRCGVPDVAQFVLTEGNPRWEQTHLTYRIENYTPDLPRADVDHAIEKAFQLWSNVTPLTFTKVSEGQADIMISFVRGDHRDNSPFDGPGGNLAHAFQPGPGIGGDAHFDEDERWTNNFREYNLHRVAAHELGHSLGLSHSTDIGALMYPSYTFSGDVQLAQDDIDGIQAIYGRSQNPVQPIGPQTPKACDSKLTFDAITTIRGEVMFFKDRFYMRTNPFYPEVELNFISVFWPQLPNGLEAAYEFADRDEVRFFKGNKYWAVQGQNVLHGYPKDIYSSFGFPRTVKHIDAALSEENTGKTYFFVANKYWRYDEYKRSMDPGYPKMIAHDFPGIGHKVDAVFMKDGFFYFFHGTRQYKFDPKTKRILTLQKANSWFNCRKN

Stromelysin-1 = Stromelysin-1 (Homo sapiens, UniProt P08254); assay: Inhibition of human MMP3
Matrilysin = Matrilysin (Homo sapiens, UniProt P09237); assay: Inhibition of human MMP7
Neutrophil collagenase = Neutrophil collagenase (Homo sapiens, UniProt P22894); assay: Inhibition of human MMP8
Chain of Neutrophil collagenase (P22894 whole entry): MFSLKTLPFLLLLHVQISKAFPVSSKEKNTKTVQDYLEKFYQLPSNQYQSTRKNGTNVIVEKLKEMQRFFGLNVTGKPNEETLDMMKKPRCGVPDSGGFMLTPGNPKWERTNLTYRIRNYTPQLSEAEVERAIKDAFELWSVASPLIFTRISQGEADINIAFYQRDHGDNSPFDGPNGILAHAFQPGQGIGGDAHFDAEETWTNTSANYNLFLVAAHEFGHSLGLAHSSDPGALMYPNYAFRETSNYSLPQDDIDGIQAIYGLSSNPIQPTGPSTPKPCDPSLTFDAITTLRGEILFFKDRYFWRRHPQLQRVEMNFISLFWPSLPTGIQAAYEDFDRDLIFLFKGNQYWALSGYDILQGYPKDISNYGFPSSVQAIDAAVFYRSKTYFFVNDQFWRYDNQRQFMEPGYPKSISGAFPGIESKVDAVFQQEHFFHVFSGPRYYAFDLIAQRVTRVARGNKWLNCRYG

[4] = target: Matrix metalloproteinase-9 (Homo sapiens, UniProt P14780); assay: Inhibition of human MMP9
Chain of Matrix metalloproteinase-9 (P14780 whole entry): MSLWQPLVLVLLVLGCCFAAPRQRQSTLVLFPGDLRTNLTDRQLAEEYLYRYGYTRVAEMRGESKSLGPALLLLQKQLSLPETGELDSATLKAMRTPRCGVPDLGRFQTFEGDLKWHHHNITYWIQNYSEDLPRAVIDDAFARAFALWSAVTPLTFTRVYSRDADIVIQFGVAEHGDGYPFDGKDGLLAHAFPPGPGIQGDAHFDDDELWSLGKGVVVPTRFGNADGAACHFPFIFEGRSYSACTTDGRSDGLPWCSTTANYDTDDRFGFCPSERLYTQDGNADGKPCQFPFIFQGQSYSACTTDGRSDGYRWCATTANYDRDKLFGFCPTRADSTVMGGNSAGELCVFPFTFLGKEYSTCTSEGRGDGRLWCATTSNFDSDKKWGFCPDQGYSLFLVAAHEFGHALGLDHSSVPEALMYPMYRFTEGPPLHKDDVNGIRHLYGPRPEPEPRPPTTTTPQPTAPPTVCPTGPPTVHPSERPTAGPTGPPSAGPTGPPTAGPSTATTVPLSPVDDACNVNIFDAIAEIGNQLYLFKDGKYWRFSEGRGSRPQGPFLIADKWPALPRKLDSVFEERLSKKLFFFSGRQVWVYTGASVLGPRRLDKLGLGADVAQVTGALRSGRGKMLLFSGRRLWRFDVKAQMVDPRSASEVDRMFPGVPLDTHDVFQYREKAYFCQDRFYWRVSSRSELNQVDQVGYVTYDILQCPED

Stromelysin-2 = Stromelysin-2 (Homo sapiens, UniProt P09238); assay: Inhibition of human MMP10
Chain of Stromelysin-2 (P09238 whole entry): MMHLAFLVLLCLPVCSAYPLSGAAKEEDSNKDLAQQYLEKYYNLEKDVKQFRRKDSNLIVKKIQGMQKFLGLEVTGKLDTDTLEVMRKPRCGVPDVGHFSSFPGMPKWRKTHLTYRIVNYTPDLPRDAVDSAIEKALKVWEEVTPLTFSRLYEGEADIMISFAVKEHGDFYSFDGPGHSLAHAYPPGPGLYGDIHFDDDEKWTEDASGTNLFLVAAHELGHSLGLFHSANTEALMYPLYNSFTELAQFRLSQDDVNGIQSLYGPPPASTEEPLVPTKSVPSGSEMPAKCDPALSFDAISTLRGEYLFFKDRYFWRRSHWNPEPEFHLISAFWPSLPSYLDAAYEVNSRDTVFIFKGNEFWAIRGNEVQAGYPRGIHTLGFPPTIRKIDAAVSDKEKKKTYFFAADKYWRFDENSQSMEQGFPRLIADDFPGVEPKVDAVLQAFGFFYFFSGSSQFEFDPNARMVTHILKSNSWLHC

[5] = target: Macrophage metalloelastase (Homo sapiens, UniProt P39900); assay: Inhibition of human MMP12
Chain of Macrophage metalloelastase (P39900 whole entry): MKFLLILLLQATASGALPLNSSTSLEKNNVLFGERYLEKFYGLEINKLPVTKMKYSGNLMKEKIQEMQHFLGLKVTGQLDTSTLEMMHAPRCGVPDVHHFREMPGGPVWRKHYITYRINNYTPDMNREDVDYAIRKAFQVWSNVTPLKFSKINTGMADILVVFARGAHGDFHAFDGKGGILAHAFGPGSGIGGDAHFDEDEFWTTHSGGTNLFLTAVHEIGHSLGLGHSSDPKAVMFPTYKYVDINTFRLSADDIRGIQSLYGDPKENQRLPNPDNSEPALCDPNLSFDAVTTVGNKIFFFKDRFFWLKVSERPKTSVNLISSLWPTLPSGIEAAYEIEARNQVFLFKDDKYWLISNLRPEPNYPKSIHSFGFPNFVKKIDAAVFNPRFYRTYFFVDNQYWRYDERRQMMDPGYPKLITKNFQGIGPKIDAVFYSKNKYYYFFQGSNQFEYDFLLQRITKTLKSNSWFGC

Collagenase 3 = Collagenase 3 (Homo sapiens, UniProt P45452); assay: Inhibition of human MMP13
[6] = target: Matrix metalloproteinase-14 (Homo sapiens, UniProt P50281); assay: Inhibition of human MMP14
[7] = target: Matrix metalloproteinase-15 (Homo sapiens, UniProt P51511); assay: Inhibition of human MMP15
Chain of Matrix metalloproteinase-15 (P51511 whole entry): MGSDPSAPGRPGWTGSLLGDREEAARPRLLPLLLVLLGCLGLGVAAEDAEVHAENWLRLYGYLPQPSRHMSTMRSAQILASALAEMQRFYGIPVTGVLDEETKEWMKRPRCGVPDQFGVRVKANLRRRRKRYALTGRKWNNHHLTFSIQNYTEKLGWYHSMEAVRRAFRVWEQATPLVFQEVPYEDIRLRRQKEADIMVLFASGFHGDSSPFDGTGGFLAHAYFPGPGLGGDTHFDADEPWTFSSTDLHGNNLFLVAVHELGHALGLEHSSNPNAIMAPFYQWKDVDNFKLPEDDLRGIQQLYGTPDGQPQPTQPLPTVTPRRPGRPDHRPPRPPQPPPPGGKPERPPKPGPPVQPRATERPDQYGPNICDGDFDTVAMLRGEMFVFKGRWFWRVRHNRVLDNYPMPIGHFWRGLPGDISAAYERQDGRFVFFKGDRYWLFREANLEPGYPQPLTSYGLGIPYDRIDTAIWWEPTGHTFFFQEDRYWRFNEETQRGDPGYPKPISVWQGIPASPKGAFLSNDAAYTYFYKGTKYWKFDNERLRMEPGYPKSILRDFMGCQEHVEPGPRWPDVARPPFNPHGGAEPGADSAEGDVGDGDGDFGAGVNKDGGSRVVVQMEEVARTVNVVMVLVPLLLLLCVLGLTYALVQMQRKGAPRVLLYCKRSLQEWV

[8] = target: Matrix metalloproteinase-16 (Homo sapiens, UniProt P51512); assay: Inhibition of human MMP16
[9] = target: Matrix metalloproteinase-20 (Homo sapiens, UniProt O60882); assay: Inhibition of human MMP20
[10] = target: Matrix metalloproteinase-24 (Homo sapiens, UniProt Q9Y5R2); assay: Inhibition of human MMP24
[11] = target: Matrix metalloproteinase-25 (Homo sapiens, UniProt Q9NPA2); assay: Inhibition of human MMP25
[12] = target: Matrix metalloproteinase-26 (Homo sapiens, UniProt Q9NRE1); assay: Inhibition of human MMP26
Chain of Matrix metalloproteinase-26 (Q9NRE1 whole entry, the tested form may be a part): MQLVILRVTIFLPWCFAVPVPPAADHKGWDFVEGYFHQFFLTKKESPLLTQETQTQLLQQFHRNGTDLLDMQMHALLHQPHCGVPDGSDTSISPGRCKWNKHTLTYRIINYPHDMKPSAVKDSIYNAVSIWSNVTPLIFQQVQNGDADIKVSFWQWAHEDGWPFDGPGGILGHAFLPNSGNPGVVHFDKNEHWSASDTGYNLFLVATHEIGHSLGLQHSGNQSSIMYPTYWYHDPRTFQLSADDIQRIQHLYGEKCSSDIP

[13] = target: Disintegrin and metalloproteinase domain-containing protein 17 (Homo sapiens, UniProt P78536); assay: Inhibition of human TACE
Chain of Disintegrin and metalloproteinase domain-containing protein 17 (P78536 whole entry, the tested form may be a part): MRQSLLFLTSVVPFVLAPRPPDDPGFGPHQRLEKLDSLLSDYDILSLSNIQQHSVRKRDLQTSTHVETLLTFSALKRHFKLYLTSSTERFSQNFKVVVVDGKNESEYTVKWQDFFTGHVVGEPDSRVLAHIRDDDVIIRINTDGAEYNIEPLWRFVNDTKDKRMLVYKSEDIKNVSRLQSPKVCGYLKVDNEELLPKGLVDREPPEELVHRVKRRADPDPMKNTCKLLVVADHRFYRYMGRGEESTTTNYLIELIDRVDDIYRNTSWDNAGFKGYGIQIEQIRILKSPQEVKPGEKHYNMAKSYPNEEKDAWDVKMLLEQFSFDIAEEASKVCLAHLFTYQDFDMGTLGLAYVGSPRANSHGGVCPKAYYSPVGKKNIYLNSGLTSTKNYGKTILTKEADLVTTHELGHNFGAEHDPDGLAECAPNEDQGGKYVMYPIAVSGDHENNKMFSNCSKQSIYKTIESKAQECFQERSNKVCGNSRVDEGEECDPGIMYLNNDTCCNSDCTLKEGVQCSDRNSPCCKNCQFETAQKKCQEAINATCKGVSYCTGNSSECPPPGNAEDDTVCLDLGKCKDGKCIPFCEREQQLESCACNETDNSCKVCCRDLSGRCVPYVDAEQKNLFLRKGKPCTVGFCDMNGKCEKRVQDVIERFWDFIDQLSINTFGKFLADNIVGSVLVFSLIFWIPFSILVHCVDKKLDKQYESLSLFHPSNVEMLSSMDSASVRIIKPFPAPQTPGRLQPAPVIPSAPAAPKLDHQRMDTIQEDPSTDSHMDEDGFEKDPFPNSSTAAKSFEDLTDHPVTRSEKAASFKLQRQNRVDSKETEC

[14] = target: T1, Sodium-dependent noradrenaline transporter (Homo sapiens, UniProt P23975); assay: Inhibition of human norepinephrine transporter
T1 sequence (P23975 whole entry): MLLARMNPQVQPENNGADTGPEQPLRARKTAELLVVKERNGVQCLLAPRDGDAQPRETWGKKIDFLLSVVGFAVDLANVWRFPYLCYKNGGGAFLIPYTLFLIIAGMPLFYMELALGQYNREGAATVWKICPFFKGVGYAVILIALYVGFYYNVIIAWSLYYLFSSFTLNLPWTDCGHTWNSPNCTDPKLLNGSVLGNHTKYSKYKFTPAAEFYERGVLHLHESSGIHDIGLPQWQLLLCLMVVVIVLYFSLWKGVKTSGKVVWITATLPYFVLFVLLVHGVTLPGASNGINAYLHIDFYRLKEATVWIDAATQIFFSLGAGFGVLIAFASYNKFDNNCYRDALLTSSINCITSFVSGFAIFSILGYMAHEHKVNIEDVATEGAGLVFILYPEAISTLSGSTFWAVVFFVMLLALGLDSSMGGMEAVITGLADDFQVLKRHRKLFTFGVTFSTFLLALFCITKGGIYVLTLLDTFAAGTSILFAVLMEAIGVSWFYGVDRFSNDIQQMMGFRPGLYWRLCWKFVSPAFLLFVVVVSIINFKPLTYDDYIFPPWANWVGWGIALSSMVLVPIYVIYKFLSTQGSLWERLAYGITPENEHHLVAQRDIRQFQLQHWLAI

[15] = Inhibition of PDE11
[16] = Clearance in rat at 10 mg/kg, iv; format: ADME, organism-based; parameters: dose 10 mg/kg, route intravenous; settings: in vivo
[17] = Volume of distribution at steady state in rat at 10 mg/kg, iv; format: ADME, organism-based; parameters: dose 10 mg/kg, route intravenous; settings: in vivo, read-out: Vdss
[18] = AUC in rat at 10 mg/kg, iv; format: ADME, organism-based; parameters: dose 10 mg/kg, route intravenous; settings: plasma
[19] = Half life in rat at 10 mg/kg, iv; format: ADME, organism-based; parameters: dose 10 mg/kg, route intravenous; settings: in vivo
[20] = Fraction unbound in human plasma; format: ADME, cell-free
Pseudomonas aeruginosa [21] = assay: Antibacterial activity against penicillin-resistant,quinolone-sensitive Pseudomonas aeruginosa UC12120 clinical isolate infected in sc dosed mouse administered 0.5 and 4 hrs post-infection measured after 24 hrs; format: functional
Pseudomonas aeruginosa [22] = assay: Antibacterial activity against penicillin-resistant,quinolone-sensitive Pseudomonas aeruginosa UC12120 clinical isolate infected in mouse assessed as log reduction in bacterial burden in spleen administered 0.5 and 4 hrs post-infection measured after 24 hrs; format: functional
Pseudomonas aeruginosa [23] = assay: Antibacterial activity against penicillin-resistant,quinolone-sensitive Pseudomonas aeruginosa UC12120 clinical isolate infected in sc dosed mouse assessed as host survival administered 0.5 and 4 hrs post-infection measured after 96 hrs; format: functional; settings: read-out: PD50
Pseudomonas aeruginosa [24] = assay: Antibacterial activity against Pseudomonas aeruginosa clinical isolates after 16 to 20 hrs by broth microdilution method; format: functional
[25] = target: T1, Sodium-dependent noradrenaline transporter; settings: 10 uM
Description: Inhibition of human norepinephrine transporter at 10 uM

## C[C@@](CCc1ccc(-c2ccccc2)cc1)(C(=O)NO)S(C)(=O)=O
Pseudomonas aeruginosa [1]
  MIC: 0.125 µg/mL (≈ 0.36 µM)
Staphylococcus aureus
  MIC: > 64 µg/mL
Pseudomonas aeruginosa [2]
  MIC: 0.008 µg/mL (≈ 0.023 µM)
Pseudomonas aeruginosa [3]
  MIC90: 4 µg/mL (≈ 11.5 µM)
Klebsiella pneumoniae
  MIC90: 16 µg/mL (≈ 46.1 µM)
Escherichia coli
  MIC90: 2 µg/mL (≈ 5.76 µM)
Klebsiella aerogenes
  MIC90: 4 µg/mL (≈ 11.5 µM)
Citrobacter freundii
  MIC90: 8 µg/mL (≈ 23 µM)
Acinetobacter baumannii
  MIC90: 32 µg/mL (≈ 92.1 µM)
Interstitial collagenase
  pKi: < 5.00
Stromelysin-1
  pKi: < 5.00
Matrilysin
  pKi: < 5.00
Neutrophil collagenase
  pKi: < 5.00
[4]
  pKi: < 5.00
Stromelysin-2
  pKi: < 5.00
[5]
  pKi: 5.87
Collagenase 3
  pKi: 5.11
[6]
  pKi: < 5.00
[7]
  pKi: < 5.00
[8]
  pKi: < 5.00
[9]
  pKi: < 5.00
[10]
  pKi: < 5.00
[11]
  pKi: < 5.00
[12]
  pKi: < 5.00
[13]
  pKi: < 5.00
[14]
  pIC50: 6.47
  pKi: 6.60
[15]
  pIC50: 4.74
[16]
  clearance: 58 mL/min/kg
[17]
  Vd: 2.7 L/kg
[18]
  AUC: 2800 ng·h/mL
[19]
  half-life: 3.2 h
[20]
  fraction unbound: 0.02
Pseudomonas aeruginosa [21]
  ED50: 35 mg/kg
Pseudomonas aeruginosa [22]
  FC: 6.2
Pseudomonas aeruginosa [23]
  ED50: 63.4 mg/kg
Pseudomonas aeruginosa [24]
  MIC50: 0.5 µg/mL (≈ 1.44 µM)
  MIC90: 2 µg/mL (≈ 5.76 µM)
[25]
  inhibition: > 50%
